Measurements taken from US8354522B2, “Immunostimulatory oligoribonucleotides” (Coley Pharmaceutical GmbH, priority 2005, dated 2013).
Read-outs that look alike come from different tables or passages of the source.

Test system: Human PBMC
Experiment: Cytokine production upon human PBMC stimulation (ORN complexed to DOTAP, 16 h, ELISA)
Type: cell-based
Conditions: human PBMC, ORN complexed to DOTAP, 16 h; for EC50: full titration 2 μM to 0.9 nM; for IFN-alpha max activity / TNF-alpha max activity: mean max activity at 0.6 μM, 3-6 blood donors
Experimental: Human peripheral blood mononuclear cells (PBMCs) were isolated from healthy donors, plated, and stimulated in vitro with various test and control immunostimulatory agents for 16 hours. After 16 hours, the supernatants were collected and then analyzed by ELISA assay. N-U-R1-R2,-Containing Oligoribonucleotides were tested complexed to DOTAP and with full titration curves (7 concentrations), starting from 2 μM ORN complexed to 25 μg/ml DOTAP and with 1/3 dilution steps. Also included were certain negative controls, including medium alone and DOTAP (25 μg/ml culture well; “Liposomes”) alone. The control immunostimulatory agents included the imidazoquinoline R-848 (2 μM with 1/3 dilution steps and 7 concentrations) the reported ligand for TLR7, ORN having TLR8 motifs such as AU and AUU sequences (SEQ ID NO:13-SEQ ID NO:15) ORN having TLR7/8 motifs such as CU, GU and GUU sequences (SEQ ID NO:19-SEQ ID NO:23).
Human PBMC were stimulated with ORN complexed to DOTAP. After 16 hours supernatants were harvested and TNF-alpha and IFN-alpha levels were measured. Mean/Max activities at 0.6 μM of 3-6 blood donors and two individual experiments were determined. […] TLR8 and TLR7/8 ORN are divided by a red line.
Human PBMC were stimulated with ORN complexed to DOTAP. After 16 hours supernatants were harvested and IFN-alpha levels were measured. Mean/Max activities at 0.6 μM and EC50 of full titration curves (range: 2 μM to 0.9 nM) of 3-6 blood donors and two individual experiments were determined. […] Low EC50/high Max activity represents TLR7/8 ORN (FIG. 5a) whereas high EC50 and low Max activity represents TLR8 ORN (FIG. 5b).
The ORN sequences listed in Table 1 were tested for IFN-alpha and TNF-alpha production upon human PBMC stimulation. Human PBMC were stimulated for 16 h with the indicated ORN, and supernatants were harvested and cytokine production measured by ELISA. Table 2 summarizes the min/max activity and EC50 of ORN for IFN-alpha and TNF-alpha production.

Row | Substance | EC50 (read-out: IFN-alpha EC50) [nM] | EC50 (read-out: TNF-alpha EC50) [nM] | IFN-alpha max activity [pg/mL] | TNF-alpha max activity [pg/mL]
1 | C*C*G*A*G*C*C*G*A*T*U*U*C*A*C*C [SEQ ID NO: 78] (CCGAGCCGANUUCACC; Oligoribonucleotide, chemistry of T and the '*' linkage is not given here, further chemistry not given here) | 6 | 241 | 1609 | 20126
2 | C*C*G*A*G*C*C*G*A*T*U*U*C*A*C*C [SEQ ID NO: 79] (CCGAGCCGANUUCACC; Oligoribonucleotide, chemistry of T and the '*' linkage is not given here, further chemistry not given here) | 35 | 334 | 1152 | 17728
3 | C*C*G*A*G*C*C*G*A*T*U*U*U*A*C*C (CCGAGCCGANUUUACC; Oligoribonucleotide, chemistry of T and the '*' linkage is not given here, further chemistry not given here) [SEQ ID NO: 59] | 74 | 224 | 1714 | 26762
4 | C*C*G*A*G*C*C*G*A*U*A*U*U*A*C*C (CCGAGCCGAUAUUACC; listed as RNA, chemistry not fully specified) [SEQ ID NO: 65] | 1130 | 77 | 335.2 | 39377
5 | C*C*G*A*G*C*C*G*A*U*C*U*C*A*C*C (CCGAGCCGAUCUCACC; listed as RNA, chemistry not fully specified) [SEQ ID NO: 69] | 619 | 313 | 1031 | 26915
6 | C*C*G*A*G*C*C*G*A*U*C*U*U*A*C*C (CCGAGCCGAUCUUACC; listed as RNA, chemistry not fully specified) [SEQ ID NO: 64] | 577 | 289 | 1421 | 30712
7 | C*C*G*A*G*C*C*G*A*U*G*U*U*A*C*C (CCGAGCCGAUGUUACC; listed as RNA, chemistry not fully specified) [SEQ ID NO: 66] | 558 | 51 | 1616 | 43098
8 | C*C*G*A*G*C*C*G*A*U*T*U*T*A*C*C (CCGAGCCGAUTUTACC; Oligoribonucleotide, chemistry of T and the '*' linkage is not given here, further chemistry not given here) [SEQ ID NO: 70] | 132 | 150 | 1702 | 44904
9 | C*C*G*A*G*C*C*G*A*U*U*C*T*A*C*C (CCGAGCCGAUUCNACC; Oligoribonucleotide, chemistry of T and the '*' linkage is not given here, further chemistry not given here) [SEQ ID NO: 75] | 1300 | 129 | 929.9 | 27576
10 | C*C*G*A*G*C*C*G*A*U*U*G*A*A*C*C (CCGAGCCGAUUGAACC; listed as RNA, chemistry not fully specified) [SEQ ID NO: 76] | 1540 | 109 | 448.6 | 26371
11 | C*C*G*A*G*C*C*G*A*U*U*G*C*A*C*C (CCGAGCCGAUUGCACC; listed as RNA, chemistry not fully specified) [SEQ ID NO: 74] | 419 | 329 | 609.1 | 30958
12 | C*C*G*A*G*C*C*G*A*U*U*U*A*A*C*C (CCGAGCCGAUUUAACC; listed as RNA, chemistry not fully specified) [SEQ ID NO: 73] | 55 | 163 | 1395 | 31619
13 | C*C*G*A*G*C*C*G*A*U*U*U*C*A*C*C (CCGAGCCGAUUUCACC; listed as RNA, chemistry not fully specified) [SEQ ID NO: 71] | 51 | 160 | 1626 | 45164
